Test results published in patent publication US6602854B1, “Branched multimeric Apo A-I agonist compounds” (priority 1997, dated 2003).
Where no end group is shown, it is not given here. [ ]: non-standard residue; d: D form. Nal = non-natural residue

What was measured:
[1] = Circular dichroism: degree of helicity (free, SUVs, micelles, TFE); details: for He (%) free: percent helicity of free, unbound peptide; for He (%) SUVs: percent helicity of peptide-SUV complexes; for He (%) TFE: percent helicity of peptide-TFE solution
Procedure: Far UV circular dichroism spectra were recorded between 190 and 260 nm (in 0.5 nm or 0.2 nm increments) with a AVIV62DS spectrometer (AVIV Associates, Lakewood, N.J., USA) equipped with a thermoelectric cell holder and sample changer. The instrument was calibrated with (+)-10-camphoric acid. Between one and three scans were collected for each sample, using 10 cm, 5 cm, 1 cm and 0.1 cm path length quartz Suprasil cells, respectively, for peptide concentrations of 10^−7 M to 10^−4 M. The bandwidth was fixed at 1.5 nm and the scan speed to 1 s per wavelength step. The reported data are the mean of at least 2 or 3 independent measurements.
After background substraction, spectra were converted to molar ellipticity (θ) per residue in deg. […] dmol^−1. The peptide concentration was determined by amino acid analysis and also by absorption spectrometry on a Perkin Elmer Lambda 17 UV/Visible spectrophotometer when the peptide contained a chromophore (tryptophane, dansyl, naphtylalanine).
CD spectra were obtained with free, unbound peptide (5 μM in 5 mM phosphate buffer, pH 7.4); with peptide-SUV complexes (20:1 EPC:Chol., Ri=30 and Ri=50); with peptide-micelle complexes (1-myristoyl-2-hydroxy-sn-glycero-3-phosphatidyl choline, Ri=100); and with free, unbound peptide in the presence of 2,2,2-trifluoroethanol (TFE) (5 μM peptide, 90% vol TFE).
The SUVs were obtained by dispersing the lipids (10 mM, 20:1 EPC:Chol., Avanti Polar Lipids, Ala.) in phosphate buffer (5 mM, pH 7.4) with bubbling N2 for 5 min., followed by sonication (1.5 hr.) in a bath sonicator. The homogeneity of the preparation was checked by FPLC.
The micelles were obtained by dispersing the lipid (6 mM 1-myristoyl-2-hydroxy-sn-glycero-3-phosphatidyl choline, Avanti Polar Lipids, AL) in phosphate buffer (5 mM, pH 7.4) with bubbling N2 for 5 min., followed by vortexing.
To obtain the peptide-SUV complexes, SUVs were added to the peptide (5 μM in 5 mM phosphate buffer, pH 7.4) at a phospholipid-peptide molar ratio (Ri) of 30 or 50.
To obtain the peptide-micelle complexes, micelles were added to the peptide (5 μM in 5 mM phosphate buffer, pH 7.4) at a Ri of 100.
All spectra were recorded at 37° C. The stability of peptide 4 (SEQ ID NO:4) as a function of temperature (both free in buffer and in micelles) was determined by recording spectra at a series of different temperatures.
The degree of helicity of peptide 4 (SEQ ID NO:4) as a function of concentration was also determined.
The degree of helicity of the peptides in the various conditions was determined from the mean residue ellipticity at 222 nm (Chen et al., 1974, Biochemistry 13:3350-3359) or by comparing the CD spectra obtained to reference spectra available on databases (16 helical reference spectra from Provencher & Glockner, 1981, Biochemistry 20:33-37; denatured protein reference spectra from Venyaminov et al., 1993, Anal. Biochem. 214:17-24) using the CONTIN curve-fitting algorithm version 2DP, CD-1 pack (Aug. 1982) (Provencher, 1982, Comput. Phys. Commun. 27:213-227, 229-242). Acceptable fit was determined using the statistical analysis methodology provided by the CONTIN algorithm.

[2] = HDL cholesterol in rabbits after injection of phospholipid/peptide complexes; assay type: in vivo, Male New Zealand White rabbits; details: 5 mg/kg as peptide/DPPC complexes
Procedure: Small discoidal particles consisting of phospholipid (DPPC) and peptide were prepared following the cholate dialysis method. The phospholipid was dissolved in chloroform and dried under a stream of nitrogen. The peptide was dissolved in buffer (saline) at a concentration of 1-2 mg/ml. The lipid film was redissolved in buffer containing cholate (43° C.) and the peptide solution was added at a 3:1 phospholipid/peptide weight ratio. The mixture was incubated overnight at 43° C. and then dialyzed at 43° C. (24 hr.), room temperature (24 hr.) and 4° C. (24 hr.), with three changes of buffer (large volumes) at temperature point. The complexes were filter sterilized (0.22 μm) for injection and storage at 4° C.
Male New Zealand White rabbits (2.5-3 kg) were injected intravenously with a dose of phospholipid/peptide complex (5 or 10 mg/kg bodyweight, expressed as peptide) in a single bolus injection not exceeding 10-15 ml. The animals were slightly sedated before the manipulations. Blood samples (collected on EDTA) were taken before and 5, 15, 30, 60, 240 and 1440 minutes after injection. The hematocrit (Hct) was determined for each sample. Samples were aliquoted and stored at −20° C. before analysis.
Plasma Lipids. The total plasma cholesterol, plasma triglycerides and plasma phospholipids were determined enzymatically using commercially available assays according to the manufacturer's protocols (Boehringer Mannheim, Mannheim, Germany and Biomerieux, 69280, Marcy-L'étoile, France).
Lipoprotein Profiles. The plasma lipoprotein profiles of the fractions obtained after the separation of the plasma into its lipoprotein fractions were determined by spinning in a sucrose density gradient. The fractions were collected and in each individual fraction the phospholipid and cholesterol content was measured enzymatically.

[3] = system: lipidic vesicles (EPC/Chol 5%); assay: Fluorescence spectroscopy lipid binding; details: for I/Io / λmax: peptide 2 μM
Procedure: The lipid binding properties of the peptides synthesized in Section 6, supra, were tested by fluorescence measurements with labeled peptides, in the present case Tryptophane (Trp or W) or Naphtylalanine (Nal). The fluorescence spectra were recorded on a Fluoromax from Spex (Jobin-Yvon) equipped with a Xenon lamp of 150 W, two monochromators (excitation and emission), a photomultiplier R-928 for detection sensitive in the red up to 850 nm and a thermoelectric magnetic stirred cell holder. Quartz Suprasil cuvettes were used for measurements in the micromolar concentration range. A device of variable slits (from 0.4 to 5 nm) allows modulation of the incident and emitted intensities according to the concentration of peptide used. The reported values are in general the average of between 2 to 4 spectra. The peptide concentration is determined by absorption spectrometry on a Philips PU 8800 usng the absorption band of the Trp (ε280 nm=5,550 M^−1cm^−1 in Tris buffer) or the Nal (ε224 nm=92,770 M^−1cm^−1 in methanol).
Fluorescence spectra of the peptides were recorded between 290 nm and 450 nm in Tris-HCl buffer (20 mM, pH=7.5), in the presence and absence of lipidic vesicles. The small unilamellar vesicles were formed after rehydration in buffer of the lyophilized phospholipids, dispersion and tip sonification under a N2 stream. The lipids used were either Egg PC/Chol. (20:1) or POPC/Chol. (20:1). The spectra were recorded at a peptide concentration of 2 μM and at a temperature of 37° C. The fluorescence reference standard in the case of Trp was N-acetyltryptophanylamide (NATA).
Lipid binding studies were done through progressive lipidic vesicle addition to the peptide in solution at 2 μM (slits:5 nm in excitation and 1.5 nm in emission). Dilution effects were taken into account for the fluorescence intensity determination. The lipid concentrations were varied from 10 to 600 μM and the molar ratio of lipid to peptide (Ri) was varied from 5 to 300. The wavelength of excitation was set at 280 nm for both Trp and Nal.
The data were directly recorded and treated by an IBM-PC linked to the spectrofluorimeter through the DM3000F software from Spex. The spectra were corrected by substraction of the solvent contribution and by application of a coefficient given by the constructor taking into account the variation of the photomultiplier response versus the wavelength.
The fluorescence spectra of the peptides were characterized by the wavelength at their maximum of fluorescence emission and by their quantum yield compared to NATA in the case of peptides labeled with a tryptophane. The process of binding to lipids was analyzed by calculating the shift of the wavelength at the maximum of fluorescence emission, (λmax), and the variation of the relative. fluorescence intensity of emission versus the lipid concentration. The relative fluorescence intensity is defined as the following ratio: (I−I0)λmax/I0λmax. I and I0 are both measured at the (λmax) corresponding to the initial free state of the peptide, i.e., without lipids. I is the intensity at a defined lipid to peptide ratio and I0 is the same parameter measured in absence of lipids. The absence of these variations is relevant of the absence of interactions of the peptides with the lipids.

Question: For “PVLDLFRELLNELLEZLKQKLK (PVLDLFRELLNELLE[Nal]LKQKLK; not fully specified) [peptide 1, Z is Nal]”, which “He (%) free” value [1] is on record?
Answer: The value was 77%.

Question: And the “He (%) SUVs” value [1]?
Answer: The value was 81%.

Question: What about the “He (%) TFE” value [1] of the same sequence?
Answer: Its value is 69%.

Question: What about the “He (%) mics” value ([1]; percent helicity of peptide-micelle complexes) of the same sequence?
Answer: Its value is 85%.

Question: And the “Increase (%) in HDL cholesterol” value ([2]; 15 min)?
Answer: Its value is 24.3%.

Question: And the “Increase (%) in HDL cholesterol” value ([2]; 30 min)?
Answer: Its value is 95%.

Question: What about the “Increase (%) in HDL cholesterol” value ([2]; 60 min) of the same sequence?
Answer: Its value is 40.7%.

Question: And the “Increase (%) in HDL cholesterol” value ([2]; 240 min)?
Answer: The value was 29%.

Question: With “PVLDLFRELWNELLEALKQKLK [peptide 15, peptide 4 containing a Trp residue at position 10]” as the sequence, how does the “He (%) free” value [1] read?
Answer: The value was 55%.

Question: What about the “He (%) SUVs” value [1] of the same sequence?
Answer: The value was 64%.

Question: What about the “He (%) TFE” value [1] of the same sequence?
Answer: Its value is 68%.

Question: What about the “lipid binding (in words)” value [3] of the same sequence?
Answer: The value was “very high affinity”.

Question: What about the “lipid to peptide molar ratio at maximum burying of the Tryptophane residue” value [3] of the same sequence?
Answer: The value was “lower than 5”.

Question: And the “maximum of the Trp emission wavelength when bound to lipidic vesicles” value ([3]; EPC/Chol 5% vesicles, shifted from 332 nm)?
Answer: Its value is 323 nm.

Question: What about the I/Io ([3]; Lipid:Peptide Molar Ratio (Ri) 0) of the same sequence?
Answer: The I/Io was 0.

Question: And the λmax ([3]; Ri 0 (buffer, no lipid))?
Answer: The λmax was 332 nm.

Question: What about the I/Io ([3]; Ri 5) of the same sequence?
Answer: Its I/Io is 10.8.

Question: And the λmax ([3]; Ri 5)?
Answer: Its λmax is 323 nm.

Question: What about the I/Io ([3]; Ri 10) of the same sequence?
Answer: The I/Io was 13.2.

Question: What about the λmax ([3]; Ri 10) of the same sequence?
Answer: Its λmax is 323.5 nm.

Question: What about the I/Io ([3]; Ri 30) of the same sequence?
Answer: Its I/Io is 17.5.

Question: And the λmax ([3]; Ri 30)?
Answer: The λmax was 323 nm.

Question: And the I/Io ([3]; Ri 100)?
Answer: The I/Io was 26.4.

Question: What about the λmax ([3]; Ri 100) of the same sequence?
Answer: Its λmax is 323 nm.

Question: What about the I/Io ([3]; Ri 200) of the same sequence?
Answer: The I/Io was 43.5.

Question: And the λmax ([3]; Ri 200)?
Answer: The λmax was 323 nm.
